Peptide text beside a SMILES is read from it. Where only a bound is given, the exact number is not on record here.

Data on two compounds can be found in publication PMC11562385 (RSC Chemical Biology, 2024).

Test [1] addresses T1, cell surface PD1 on CD3+/CD8+ cells of h-PBMCs (Homo sapiens, UniProt Q15116).
T1 construct: endogenous in cells; host or cells: healthy human PBMCs (CD45+, CD3+/CD8+ gated)
As to the kind of experiment: In cellulo PD1 blockade on h-PBMCs by flow cytometry. In kind it is cell-based. The note with it: h-PBMC cultures, 30 h, n = 3. The text has this: Then, an ex vivo immune cell culture system using h-PBMCs and exhausted PBMCs from a melanoma patient (e-PBMCs) was used to determine the efficacy of selected ADAPTin peptides on T-effector cells (Fig. 6).[91,92] T-cell exhaustion typically leads to a reduction in cytokine release, cytotoxic activity, as well as slower T-cell proliferation.
On the technique in general: A flow cytometer gives signals particle by particle.

For another test, the target named is T2, PD1:PDL1 interaction (Homo sapiens, UniProt Q15116).
T2 construct: purchased BPS Bioscience 72005
T2 sequence (Q15116 25-167 limits assumed): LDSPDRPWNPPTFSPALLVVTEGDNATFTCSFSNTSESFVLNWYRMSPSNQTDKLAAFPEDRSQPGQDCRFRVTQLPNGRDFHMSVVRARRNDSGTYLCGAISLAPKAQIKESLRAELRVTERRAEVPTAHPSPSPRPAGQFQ
Kind of test: PD1/PDL1 immunoblocking ELISA (BPS Bioscience kit cat # 72005). It counts as binding. On the technique in general: ELISA stands for enzyme-linked immunosorbent assay.

For a further test, the system named is e-PBMCs. As to the kind of experiment: Ex vivo cytokine secretion assay, exhausted PBMCs from a melanoma patient. It counts as cell-based, human. Particulars: e-PBMC, 6 h, LEGENDplex. The protocol: Then, an ex vivo immune cell culture system using h-PBMCs and exhausted PBMCs from a melanoma patient (e-PBMCs) was used to determine the efficacy of selected ADAPTin peptides on T-effector cells (Fig. 6).[91,92] T-cell exhaustion typically leads to a reduction in cytokine release, cytotoxic activity, as well as slower T-cell proliferation. […] Cytokines concentrations measured at 72 h post-treatment were in most cases over the detection limit range further indicating the effectiveness of our compounds over time.
Non-covalent ADAPTin2c/2p were used as negative control. (A) Levels of inflammatory cytokines measured by flow-cytometry (FACS) after 6 h incubation with electrophilic ADAPTins. Error bars indicate the mean ± SD, (n = 3). (B) Rescue of exhausted PBMCs from a melanoma patient. Levels of inflammatory cytokines and granule-associated proteins released (6 h) measured by FACS (healthy and untreated exhausted PBMCs: h-/e-PBMCs used as positive and negative controls respectively). Error bars indicate the avg ± SD, (n = 2).
Ex Vivo Cytokine Secretion Assay.
Normal PBMCs (from healthy donor) and exhausted PBMCs isolated from the blood sample of a melanoma patient were activated for 48 h before using anti-CD2/28 monoclonal antibodies with IL-2 (2 ng/mL) as mentioned above. After 48 h, PBMCs were washed and incubated with a series of ADAPTins for 6 h. After treatment, media supernatant was collected for cytokine release measurements using the LEGENDplex™ human CD8/NK (13-plex) panel (BioLegend, cat no. 740267). Briefly, samples were mixed with assay buffer and human (13-plex) mixed-beads and plated on the 96-well filter plate. Samples were incubated for 2 h at room temperature, washed, and resuspended beads with detection antibodies according to manufacturer's protocol. Samples were transferred to a 96-well plate to read on a flow cytometer. The flow cytometer and data acquisition software setting were used according to the manufacturer's instructions. Flow analysis was obtained using a CytoFLEX-S flow cytometer equipped with 3 lasers (488 nm blue, 405 nm violet, and 638 nm from Beckman).
Table S9. Raw data of cytokine secretion assay (n=2).
Cytokine assay IL-2 TNF-α IFN-γ Perforin […]

T1 sequence (Q15116 25-288): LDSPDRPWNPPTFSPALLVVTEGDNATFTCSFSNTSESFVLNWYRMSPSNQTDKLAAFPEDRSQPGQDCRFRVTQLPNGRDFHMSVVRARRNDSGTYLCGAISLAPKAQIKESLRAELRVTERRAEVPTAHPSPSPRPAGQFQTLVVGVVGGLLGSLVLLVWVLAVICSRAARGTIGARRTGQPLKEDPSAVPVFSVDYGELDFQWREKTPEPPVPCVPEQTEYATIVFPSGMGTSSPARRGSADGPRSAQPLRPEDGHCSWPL

Broadly, the EC50 is the concentration at which the effect is half-maximal. Consider `CSCC[C@H](NC(=O)CNC(=O)[C@H](CCC(=O)O)NC(=O)[C@H](CCCNC(=N)N)NC(=O)[C@H](C)NC(=O)[C@@H](NC(=O)[C@H](Cc1c[nH]c2ccccc12)NC(=O)[C@@H](N)CCCNC(=N)N)C(C)C)C(=O)N[C@@H](CC(N)=O)C(=O)N[C@H](C(=O)N[C@@H](CC(=O)O)C(=O)NCC(=O)N[C@@H](Cc1ccc(O)cc1)C(=O)N[C@@H](Cc1ccccc1)C(=O)N[C@@H](CC(N)=O)C(=O)N[C@@H](Cc1ccc(O)cc1)C(=O)N[C@@H](Cc1c[nH]c2ccccc12)C(=O)N[C@H](C(=O)N[C@@H](Cc1c[nH]c2ccccc12)C(=O)N[C@@H](CCC(=O)O)C(=O)O)C(C)C)[C@@H](C)O` [2p] (H-RWVAREGMNTDGYFNYWVWE-OH), for which the “PD1 blockade on CD3+/CD8+ T-effector cells” value in test [1] was below 20%. Besides, the EC50 at PD1:PDL1 interaction was found to be 160 nM.
Take “pembrolizumab: FDA-approved anti-PD1 antibody; 'Pem' = its CDR-H3 loop in Table 1 [reference compound]”: in the test with e-PBMCs (replicate 1), the IFN-γ came to 4359.77 pg/mL, the IL-2 worked out at 0.44 pg/mL, the Perforin turned out to be 227.36 pg/mL and the TNF-α worked out at 500.12 pg/mL. In the test on e-PBMCs (replicate 2), this compound came in with an IFN-γ of 7617.66 pg/mL, an IL-2 of 275.42 pg/mL, a Perforin of 438.61 pg/mL and a TNF-α of 1224.22 pg/mL.
